Reference: ChEMBL document CHEMBL1139607, “Synthetic lanostane-type triterpenoids as inhibitors of DNA topoisomerase II” (Bioorg Med Chem Lett, 2005)
pEC50: −log10 of the molar value.

How the values were obtained:
[1] = biological target: DNA topoisomerase II (Homo sapiens, UniProt P11388+Q02880); test: Inhibitory concentration against human DNA topoisomerase II; format: protein assay
[2] = system: A549; test: Effective dose on human lung carcinoma (A549) cells; format: functional; conditions: read-out: ED50 (the source's name)

Row | SMILES | IC50 [1] [µM] | pEC50 [2]
1 | C[C@H](CC[C@@H](O)C(C)(C)O)[C@H]1CC[C@]2(C)C3CCC4C(C)(C)C(=O)C(C#N)=C[C@]4(C)C3=CC[C@]12C (some centres not stated) | 83.23 | 4.59
2 | COC1=C[C@]2(C)C3=CC[C@]4(C)[C@@H]([C@H](C)CC[C@@H](O)C(C)(C)O)CC[C@]4(C)C3CCC2C(C)(C)C1=O (some centres not stated) | 22.7 | 4.53
3 | C[C@H](CC[C@@H](O)C(C)(C)O)[C@H]1CC[C@]2(C)C3CCC4C(C)(C)C(=O)C=C[C@]4(C)C3=CC[C@]12C (some centres not stated) | 149.97 | 4.57
4 | C[C@H](CC[C@@H](O)C(C)(C)O)[C@H]1CC[C@]2(C)C3CCC4C(C)(C)C(=O)C(Cl)=C[C@]4(C)C3=CC[C@]12C (some centres not stated) | 106.8 | 4.42

Now those with a higher pEC50 [2], led by results:

Row | IC50 [1] [µM] | pEC50 [2] | SMILES
5 | 23.8 | 5.13 | C[C@H](CC[C@@H](O)C(C)(C)O)[C@H]1CC[C@]2(C)C3CCC4C(C)(C)C(=O)C(C(=O)O)=C[C@]4(C)C3=CC[C@]12C (some centres not stated)
6 | – | 5.47 | COc1cc([C@@H]2c3cc4c(cc3[C@@H](O[C@@H]3O[C@@H]5CO[C@@H](C)O[C@H]5[C@H](O)[C@H]3O)[C@H]3COC(=O)[C@H]23)OCO4)cc(OC)c1O [ETOPOSIDE]
7 | 1.86 | 4.88 | C[C@H](CC[C@@H](O)C(C)(C)O)[C@H]1CC[C@]2(C)C3CCC4C(C)(C)C(=O)C(C=O)=C[C@]4(C)C3=CC[C@]12C (some centres not stated)
8 | 18.27 | 4.85 | C[C@H](CC[C@@H](O)C(C)(C)O)[C@H]1CC[C@]2(C)C3CCC4C(C)(C)C(=O)C(Br)=C[C@]4(C)C3=CC[C@]12C (some centres not stated)
9 | 66.51 | 5.40 | COC(=O)C1=C[C@]2(C)C3=CC[C@]4(C)[C@@H]([C@H](C)CC[C@@H](O)C(C)(C)O)CC[C@]4(C)C3CCC2C(C)(C)C1=O (some centres not stated)
